Values of other authors as cited in US20080119444A1, “Methods and compositions for the treatment of cancer” (priority 2006, published 2008).

Legend:
HMG-CoA reductase = target: T1, HMG-CoA reductase (Homo sapiens, UniProt P04035)
T1 sequence (P04035 1-888): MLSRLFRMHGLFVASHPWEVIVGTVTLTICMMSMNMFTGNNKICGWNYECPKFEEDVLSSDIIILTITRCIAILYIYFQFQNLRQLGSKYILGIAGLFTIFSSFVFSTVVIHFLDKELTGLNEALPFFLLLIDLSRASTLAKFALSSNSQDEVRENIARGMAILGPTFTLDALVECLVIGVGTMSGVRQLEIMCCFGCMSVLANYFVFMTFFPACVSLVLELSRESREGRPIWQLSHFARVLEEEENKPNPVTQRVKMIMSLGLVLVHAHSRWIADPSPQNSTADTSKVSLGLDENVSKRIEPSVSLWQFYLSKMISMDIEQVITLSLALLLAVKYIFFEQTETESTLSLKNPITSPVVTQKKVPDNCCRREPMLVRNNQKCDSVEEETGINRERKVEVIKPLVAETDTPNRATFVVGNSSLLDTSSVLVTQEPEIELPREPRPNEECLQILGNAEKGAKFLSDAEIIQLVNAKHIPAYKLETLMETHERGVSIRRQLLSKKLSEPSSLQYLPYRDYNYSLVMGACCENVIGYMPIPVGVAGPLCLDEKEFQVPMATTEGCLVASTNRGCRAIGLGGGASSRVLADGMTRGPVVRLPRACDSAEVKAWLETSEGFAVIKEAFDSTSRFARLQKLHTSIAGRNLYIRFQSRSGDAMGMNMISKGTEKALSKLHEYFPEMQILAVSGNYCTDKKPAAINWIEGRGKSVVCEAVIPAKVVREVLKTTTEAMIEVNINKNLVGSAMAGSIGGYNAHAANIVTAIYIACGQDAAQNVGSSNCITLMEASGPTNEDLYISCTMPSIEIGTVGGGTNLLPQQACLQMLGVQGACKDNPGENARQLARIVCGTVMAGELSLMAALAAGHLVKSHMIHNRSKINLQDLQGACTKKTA

[1] = tamoxifen users
early breast cancer = details: for contralateral breast cancers (events) / disease-free survival events / distant metastases (events) / time-to-recurrence events: median follow-up 68 months
[2] = ATAC trial
breast cancer = details: for disease-free survival: after 2 to 3 years of tamoxifen: switch to exemestane or continue tamoxifen, total 5 years, median follow-up 30.6 months
[3] = exemestane vs tamoxifen
[4] = system: endocrine-responsive breast cancer; details: adjuvant letrozole compared with tamoxifen, postmenopausal women
[5] = in vivo
[6] = 5 years of tamoxifen treatment, women with ER+ disease
[7] = at 15 years, ER+ (or ER unknown) tumors, 5 years of tamoxifen
[8] = sequence tamoxifen then exemestane vs continued tamoxifen

Row | SMILES | potency relative to another statin (HMG-CoA reductase) | contralateral breast cancers (events) (early breast cancer) | disease-free survival events (early breast cancer) | distant metastases (events) (early breast cancer) | time-to-recurrence events (early breast cancer) | withdrawal rate for drug-related adverse events [2] | disease-free survival (breast cancer) | fracture rate compared to tamoxifen | other results
1 | CC(C)c1nc(N(C)S(C)(=O)=O)nc(-c2ccc(F)cc2)c1/C=C/[C@@H](O)C[C@@H](O)CC(=O)O [rosuvastatin] | more potent than atorvastatin |  |  |  |  |  |  |  | 
2 | CC/C(=C(\c1ccccc1)c1ccc(OCCN(C)C)cc1)c1ccccc1 [tamoxifen] |  | 59 | 651 events | 375 | 498 | 7.2% | 86.8% |  | 10-year risk of mortality from endometrial cancer [1]: 2 per 1000; reduction of annual rate of mortality (ER+ breast cancer; [6]): 34%; reduction of annual rate of recurrence (ER+ breast cancer; [6]): 41%; absolute reduction in mortality (ER+ breast cancer; [7]): 9.2%; absolute reduction in recurrence (ER+ breast cancer; [7]): 11.8%
3 | CC(C)c1c(C(=O)Nc2ccccc2)c(-c2ccccc2)c(-c2ccc(F)cc2)n1CC[C@@H](O)C[C@@H](O)CC(=O)O [Atorvastatin, atorvastatin] | approximately twice as potent as simvastatin |  |  |  |  |  |  |  | 
4 | CC(C)(C#N)c1cc(Cn2cncn2)cc(C(C)(C)C#N)c1 [anastrozole] |  | 35 | 575 events | 324 | 402 | 5.1% |  |  | reduction of contralateral breast cancers (early breast cancer; anastrozole vs tamoxifen): 42%
5 | C=C1C[C@@H]2[C@H](CC[C@]3(C)C(=O)CC[C@@H]23)[C@@]2(C)C=CC(=O)C=C12 [exemestane] |  |  |  |  |  |  | 91.5% | non-significant increase in fracture rate | bone loss during treatment (compared to placebo): minor bone loss; absolute difference in disease-free survival (breast cancer; [8]): 4.7%; disease-free survival HR (breast cancer; [8]): 0.68; diarrhea [3]: 4.3%
6 | N#Cc1ccc(C(c2ccc(C#N)cc2)n2cncn2)cc1 [letrozole] |  |  |  |  |  |  |  | significantly increase fracture rate | fracture rate compared to placebo (compared to placebo): non-significant increase in fracture rate; risk of recurrent disease [4]: reduced the risk of recurrent disease; grade 3, 4, or 5 cardiac events [5]: 2.1%; patients with hypercholesterolemia reported at least once during treatment [5]: 43.6%
